In US9545393B2, “Methods and compositions for treating pain” (The Board of Trustees of the Leland Stanford Junior …, priority 2012, dated 2017):
“Also recorded” adds a separate entry of the source.

Tests used:
mutant ALDH2*2 = target: T1, mutant ALDH2*2 (Homo sapiens, UniProt P05091, E504K); conditions: Perez-Miller et al, 2010; cited from earlier work
T1 sequence (P05091 18-517 E504K): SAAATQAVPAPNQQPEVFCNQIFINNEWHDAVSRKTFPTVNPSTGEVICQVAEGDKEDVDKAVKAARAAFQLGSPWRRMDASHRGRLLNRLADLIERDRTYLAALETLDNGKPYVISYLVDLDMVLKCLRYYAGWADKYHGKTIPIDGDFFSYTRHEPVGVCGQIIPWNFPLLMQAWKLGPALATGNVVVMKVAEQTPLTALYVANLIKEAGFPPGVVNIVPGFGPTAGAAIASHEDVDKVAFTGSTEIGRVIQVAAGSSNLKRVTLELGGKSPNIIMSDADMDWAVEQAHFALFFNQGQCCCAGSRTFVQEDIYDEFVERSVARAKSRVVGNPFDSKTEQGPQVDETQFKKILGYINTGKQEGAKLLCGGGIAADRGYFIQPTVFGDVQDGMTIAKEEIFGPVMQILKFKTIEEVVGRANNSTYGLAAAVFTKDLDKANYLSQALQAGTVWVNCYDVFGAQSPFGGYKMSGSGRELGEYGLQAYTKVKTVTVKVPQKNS

[1] = previously shown (Chen 2008; Koda 2010); cited from earlier work
mast cell chymase = test: Western blot of mast cell chymase in paw after carrageenan; assay type: in vivo, rat; conditions: rats, 3 hours after carrageenan; Alda-1 versus vehicle
Procedure: Biochemical Studies In Rats and Mice. Protein was isolated from rat paw tissue at 3 hours after treatment or from liver tissue of mutant or wild type mice. Tissues were homogenized in buffer containing (Hepes 10 mM, NaCl 0.9%, EGTA 1 mM, DTPA 100 μM, Triton-X 1%, Protease and Phosphatase inhibitors (AEBSF, Aprotinin, Bestatin, E-64, Leupeptin, Pepstatin A, Sodium orthovanadate, Sodium molybdate, Sodium tartrate, Imidazole, Cantharidin, (−)-p-Bromolevamisole oxalate and Calyculin A). The samples were centrifuged at 700 g for 5 min at 4° C. Mitochondrial fraction from liver was obtained as previously described (Chen, et al. (2008) Activation of aldehyde dehydrogenase-2 reduces ischemic damage to the heart. Science 321, 1493-1495; Sun, L., et al. ALDH2 activator inhibits increased myocardial infarction injury by nitroglycerin tolerance. Sci Transl Med 3, 107ra111). Activation of aldehyde dehydrogenase-2 reduces ischemic damage to the heart. Science 2008; 321:1493-5). The protein concentration was determined in the supernatants by using Bradford (Bradford, M. M. (1976). A rapid and sensitive method for the quantitation of microgram quantities of protein utilizing the principle of protein-dye binding. Anal Biochem 72, 248-254).
Western blot analysis. […] Quantification analysis of blots was performed with Image J software, using GAPDH as a loading control.

malondialdehyde (MDA) = test: Thiobarbituric acid-reactive substance assay (malondialdehyde) in paw homogenate; assay type: in vivo, rat; conditions: rats, 3 hours after carrageenan; P<0.05
Procedure: Thiobarbituric acid-reactive substance assay. Thiobarbituric acid-reactive substance (TBARS) was measured using an Oxi-Tek TBARS assay kit (ZeptoMetrix, Buffalo, N.Y.). In brief, 100 μL of plantar homogenates were mixed with 100 μl sodium dodecyl sulfonate solution. TBA/buffer reagent was prepared by mixing 0.5 g thiobarbituric acid with 50 ml acetic acid and 50 ml NaOH. TBA/buffer reagent (2.5 ml) was added to 200 μL sample/sodium dodecyl sulfonate mixture and incubated at 95° C. in capped tubes for 60 min. The samples were cooled to room temperature in an ice bath for 10 min and centrifuged at 3,000 g for 15 min. The supernatants were removed, and fluorescence intensity was measured in semi-microcuvettes in a fluorometer (Bio-Rad Laboratories, Hercules, Calif.). The concentration of TBARS was expressed in pmol/mg protein by interpolation from a standard curve of malondialdehyde at 0-200 pmol concentrations. The results are expressed as percent control.

[2] = Half-life of Alda-1 (preliminary studies); assay type: in vivo; conditions: estimated; reason for multiple doses
Procedure: Alda-1 dose (2 mg/kg/per injection, dissolved in 50% PEG/50% DMSO) was established in preliminary studies and given in multiple doses due to its estimated short half-life. Alda-1 was injected subcutaneously to the dorsal side of the neck 15 minutes before carrageenan or saline, and again at 30 and 150 minutes after carrageenan, prostaglandin E2 or saline injection. One subset of animals received Alda-1 only 30 and 150 minutes after carrageenan injection. Where indicated, naloxone (1 mg/kg per injection) or vehicle (saline) was given 10 minutes prior to each Alda-1 treatment to the dorsal side of the neck.

ALDH2 *1/*2 mice = test: Acetaldehyde vapor experiments with sub-threshold carrageenan, von Frey nociception; assay type: in vivo, mouse; conditions: ALDH2 *1/*2 mice exposed to acetaldehyde vapor, with Alda-1
Procedure: von Frey hair testing method: Hind paw nociception was assessed with six different von Frey hairs (0.03, 0.17, 0.41, 0.69, 1.20 and 1.48 g). Mice were placed individually in a plastic cage with a wire mesh bottom. After acclimation for at least 15 min, a von Frey hair was pressed perpendicularly against the plantar skin surface and held for approximately 5 seconds until hair slightly buckled. Using the same stimulation intensity […], each individual hair was applied six times to each hind paw at intervals of several seconds.
Since the response to each von Frey stimulus is fairly subjective, we used a method of objectifying these nociceptive responses by assigning a specific number to the response. Our scoring system consisted of: […], 1=withdraws paw from hair and 0=immediate flinching or hind paw licking. This method was previously shown by others to provide a reliable, objective assessment of pain response using von Frey hairs (Dale C S, et al., (2009) Analgesic properties of S100A9 C-terminal domain: a mechanism dependent on calcium channel inhibition. Fundamental & clinical pharmacology 23: 427-438; Takasaki I, et al., (2000) Allodynia and hyperalgesia induced by herpes simplex virus type-1 infection in mice. Pain 86: 95-101).
Acetaldehyde Experiments. […] A subset of these mice was exposed to acetaldehyde vapor with or without Alda-1. […]

Half-life [2]: short
Compound: O=C(NCc1ccc2c(c1)OCO2)c1c(Cl)cccc1Cl [Alda-1, N-(1,3-benzodioxol-5-ylmethyl)-2,6-dichlorobenzamide]
Effect on activity of mutant ALDH2*2 (mutant ALDH2*2): corrects ALDH2 inactivity
Cardiovascular benefits after acute myocardial infarction [1]: reducing infarct size and arrhythmias
Mast cell chymase level in the paw (mast cell chymase): no differences; also recorded: increased equally
Malondialdehyde (MDA) levels in the inflamed paw (malondialdehyde (MDA)): reduced
Acetaldehyde-exacerbated hyperalgesia after carrageenan (50 μg) (ALDH2 *1/*2 mice): rescued; also recorded: reversed
